EC50 data for one substance are collected here from patent publication US9024022B2, “Substrates of O6-alkylguanine-DNA alkyltransferase and mutants thereof” (Cis Bio International, priority 2008, dated 2015).

For the test, the target named is T1, N-AGT enzyme (AGT-mGluR2 fusion protein) (Homo sapiens, UniProt P16455).
T1 construct: fused on or other part: type 2 metabotropic glutamate receptor (mGluR2)
Put plainly: Enzymatic reactivity test in a cell model, N-AGT mutant. The class given is cell-based. The conditions noted are these: living cells, N-AGT mutant; labeling 1 h at 37° C.; read-out: half saturation concentration of the enzyme. How it is done:
This procedure makes it possible to test the reactivity of substrates according to the invention with an AGT expressed by COS 7 cells in the form of a fusion protein with the type 2 glutamate transmembrane receptor (mGluR2).
Various mutants of AGT were analyzed in this study: SNAP-tag-ST26 or CLIP-tag from Covalys or the N-AGT mutant described by Gronemeyer et al. (Protein Engineering, Design & Selection, Vol. 19, No. 7, pp. 309-316, 2006).
The transient transfection of the cells is carried out by electroporation using a Biorad electroporator: 10 million cells are transfected by 1 μg SNAP-tag-mGluR2+3 μg pcdna3.1 in a final volume of 300 μl. The electroporation parameters are: 280 V & 1000 μF. […]
The labeling of the AGT-mGluR2 fusion protein takes place in 100 μl of complete medium with increasing concentrations of BG-fluorophore or BG-L1-A-L2-fluorophore according to the invention for 1 h at 37° C. Before the reading, 4 washing operations are carried out with 100 μl of Tris-Krebs.
For the substrates bearing fluorophores ATTO647 (example 2), DY647 (examples 1 and 5) and fluorescein-5-EX (example 3), the reading is carried out in 100 μl of Tris-Krebs in direct fluorescence at 682 nm on a Rubystar machine, and at 520 nm for those bearing fluorescein-5-EX (example 3). […]

T1 sequence (P16455 whole entry, looked up, the tested form may be a part): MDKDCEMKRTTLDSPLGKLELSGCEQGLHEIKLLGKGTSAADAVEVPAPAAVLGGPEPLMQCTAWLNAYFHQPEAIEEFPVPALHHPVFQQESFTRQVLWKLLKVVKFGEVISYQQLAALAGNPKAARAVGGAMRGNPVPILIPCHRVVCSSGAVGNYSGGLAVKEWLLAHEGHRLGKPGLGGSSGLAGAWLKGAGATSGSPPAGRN

Take “Tb(KR)-methylbenzamide-BG [BG-methylbenzamide-Tb(KR)]”: the EC50 was determined as 6.4 nM.
